Experimental data from patent EP4610267A1, “CYCLIC DINUCLEOTIDES AND CONJUGATES THEREOF WITH ANTIBODIES” (priority 2024, dated 2025).

Tests used:
Details in all cases: digitonin permeabilised 293T reporter cells
STING WT = target: T1, STING WT (Homo sapiens, UniProt Q86WV6, H232R); test: 293T STING digitonin reporter assay (WT haplotype); type: cell-based
T1 construct: expressed in transfected cells
Protocol: (§1) Digitonin Assay with 293T Reporter Cells. The generation of 293T reporter cells stably expressing different STING protein haplotypes (WT, HAQ, REF, AQ, or Q) was described previously (Novotna et al, J. Med. Chem. 2019,62, 10676). The cells were seeded at a density of 250 000 cells per cm^2 into 96 well white poly(D-lysine) coated plates in 100 µL of DMEM with high glucose supplemented with 10% heat inactivated FBS. Next day, the medium was removed, and compounds were added in 3-fold serial dilutions in a digitonin buffer containing 50 mM HEPES (pH 7.0), 100 mM KCl, 3 mM MgClz, 0.1 mM DTT, 85 mM sucrose, 0.2% (w/w) BSA, 1 mM ATP, 0.1 mM GTP, and 10 µg/mL digitonin A. After 30 min incubation at 37 °C with 5% CO2, the digitonin buffer was removed, cells were washed once with 100 µL of the cultivation medium, and 100 µL of fresh medium was added to each well. The plates with cells were further incubated for 5 h at 37 °C with 5% CO2. Thereafter, 50 µL of the medium was removed, and 30 µL of Bright-Glo Luciferase Assay System reagent was added to each well. […] Nonlinear regression curve fit with standard slope was used for EC50 value calculations. The EC50 value represents CDN concentration that gives half-maximal response of firefly luciferase in the 293T reporter assay.

STING HAQ = target: T2, STING HAQ (Homo sapiens, UniProt Q86WV6, G230A/H232R/R293Q/R71H); test: 293T STING digitonin reporter assay (HAQ haplotype); type: cell-based
T2 construct: expressed in transfected cells
T2 sequence (Q86WV6 whole entry R71H/G230A/H232R/R293Q): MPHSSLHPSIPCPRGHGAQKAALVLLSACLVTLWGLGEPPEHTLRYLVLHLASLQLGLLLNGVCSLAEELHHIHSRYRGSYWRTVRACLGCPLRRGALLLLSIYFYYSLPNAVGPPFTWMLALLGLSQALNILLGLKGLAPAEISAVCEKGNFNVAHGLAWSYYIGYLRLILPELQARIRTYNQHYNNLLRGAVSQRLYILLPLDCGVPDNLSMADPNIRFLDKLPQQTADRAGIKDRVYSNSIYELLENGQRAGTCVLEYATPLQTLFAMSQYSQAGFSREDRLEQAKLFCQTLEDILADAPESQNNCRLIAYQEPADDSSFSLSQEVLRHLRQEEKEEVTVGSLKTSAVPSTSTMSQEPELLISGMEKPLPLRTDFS
Protocol: as §1

STING REF = target: T3, STING REF (Homo sapiens, UniProt Q86WV6); test: 293T STING digitonin reporter assay (REF haplotype); type: cell-based
T3 construct: expressed in transfected cells
T3 sequence (Q86WV6 whole entry): as the sequence (Q86WV6 whole entry R71H/G230A/H232R/R293Q) above, with H71R, A230G, R232H, Q293R counted along it
Protocol: as §1

STING AQ = target: T4, STING AQ (Homo sapiens, UniProt Q86WV6, G230A/H232R/R293Q); test: 293T STING digitonin reporter assay (AQ haplotype); type: cell-based
T4 construct: expressed in transfected cells
T4 sequence (Q86WV6 whole entry G230A/H232R/R293Q): as the sequence (Q86WV6 whole entry R71H/G230A/H232R/R293Q) above, with H71R counted along it
Protocol: as §1

STING Q = test: 293T STING digitonin reporter assay (Q haplotype); type: cell-based, human
Protocol: as §1

T1 sequence (Q86WV6 whole entry H232R): as the sequence (Q86WV6 whole entry R71H/G230A/H232R/R293Q) above, with H71R, A230G, Q293R counted along it

Work on `Nc1ncnc2c1ncn2[C@@H]1O[C@@H]2OCP(=O)(S)O[C@@H]3[C@H](F)[C@@H](COP(=O)(S)OC[C@H]2[C@H]1F)O[C@H]3n1cnc2c(=O)[nH]cnc21` (single isomer, unassigned) [Compound 2.1] yielded an EC50 (STING WT) of 30 nM, an EC50 (STING HAQ) of 180 nM and an EC50 (STING REF) of 140 nM. For the same compound, the EC50 (STING AQ) was 180 nM and the EC50 (STING Q) was 350 nM.
